US4021479A, “Derivatives of 4-(4-biphenylyl)-butyric acid” (Boehringer Ingelheim GmbH, priority 1971, dated 1977)
Counter-ions that a name gives are not always drawn.

How the values were obtained:
Format in all cases: in vivo
[1] = tested on: adult laboratory rats; assay: acute toxicity (LD50) in adult laboratory rats; conditions: p.o., rats, printed in parentheses under the LD50 bound; observation period of 14 days
Method: (§1) The acute toxicities of the compounds (LD50) were determined in adult laboratory rats from the percentage of animals which died after administration of varying doses within an observation period of 14 days [see J. Pharmacol. exper. Therap. 96, 99 1949)].

[2] = acute toxicity (LD50) in adult laboratory rats; conditions: rat, in vivo, po, adult rats, observation period of 14 days
Method: as §1

[3] = tested on: kaolin-induced edema in the hind paw of rats; assay: antiexudative action against the kaolin-induced edema in the hind paw of rats (Hillebrecht); conditions: Rattus norvegicus, po, dose which produces a 35% reduction in the edematous swelling
Method: The antiphlogistic activity of the compounds of the present invention was ascertained by the standard test method Hillebrecht described in Arzneimittelforschung 4, 607-614 (1954), i.e. in terms of the antiexudative action against the kaolin-induced edema in the hind paw of rats. The measurements were carried out by the method of Doepfner and Cerletti, Int. Arch. Allergy and Appl. Immunology 12, 89-97 (1958). The data thus obtained were plotted on a dose-activity graph, and from the resulting curve the dose which produces a 35% reduction in the edematons swelling (ED35) was graphically calculated for each compound.

Row | Structure (SMILES) | animals died [1] | LD50 at 336 h [2] [mg/kg] | ED35 [3] [mg/kg]
1 | O=C(O)CCC(O)c1ccc(-c2ccccc2[N+](=O)[O-])cc1 (centres unmarked) [A, cyclohexylamine salt of 4-(2'-nitro-4-biphenylyl)-4-hydroxy-butyric acid] | 0 out of 5 | > 500 | 30
2 | Nc1ccccc1-c1ccc(C(O)CCC(=O)O)cc1 (centres unmarked) [B, cyclohexylamine salt of 4-(2'-amino-4-biphenylyl)-4-hydroxy-butyric acid] | – | 1340 | 66
3 | O=C(O)CCCc1ccc(-c2ccccc2[N+](=O)[O-])cc1 [C, cyclohexylamine salt of 4-(2'-nitro-4-biphenylyl)-butyric acid] | 3 out of 10 | > 1000 | 66
4 | O=C(O)CCC(O)c1ccc(-c2ccccc2Cl)cc1 (centres unmarked) [Compound E, cyclohexylamine salt of 4-(2'-chloro-4-biphenylyl)-4-hydroxy-butyric acid] | 1 out of 10 | > 1000 | 27
5 | O=C(O)CCCc1ccc(-c2ccccc2F)cc1 [D, cyclohexylamine salt of 4-(2'-fluoro-4-biphenylyl)-butyric acid] | 0 out of 10 | > 500 | 37
6 | O=C(O)CCCc1ccc(-c2ccccc2Cl)cc1 [F, cyclohexylamine salt of 4-(2'-chloro-4-biphenylyl)-butyric acid] | 2 out of 10 | > 1000 | 50
7 | O=C(O)CCCc1ccc(-c2ccc([N+](=O)[O-])cc2)cc1 [G, cyclohexylamine salt of 4-(4'-nitro-4-biphenylyl)-butyric acid] | 0 out of 10 | > 1000 | 30
